Experimental data from ChEMBL document CHEMBL3352223, “Synthesis, anti-cancer and anti-inflammatory activity of novel 2-substituted isoflavenes” (Bioorg Med Chem, 2014).

Columns and labels:
[1] = Antiproliferative activity against human SHEP cells after 72 hrs by Alamar blue/spectrophotometric analysis; assay type: functional, cell-based
MDA-MB-231 = assay: Antiproliferative activity against human MDA-MB-231 cells after 72 hrs by Alamar blue/spectrophotometric analysis; assay type: functional, cell-based; conditions: MDA-MB-231, 72 h
RAW264.7 = assay: Antiinflammatory activity against mouse RAW264.7 cells assessed as reduction of LPS-induced IL6 production at 10 uM after 24 hrs by ELISA; assay type: functional; conditions: RAW264.7, 24 h

SMILES | IC50 [1] [µM] | IC50 (MDA-MB-231) [µM] | inhibition at 10 µM (RAW264.7) [%]
CC(=O)CC1Oc2cc(O)ccc2C=C1c1ccc(O)cc1 (centres undefined) | 124 | 145 | > 50
CC(C)CC(=O)CC1Oc2cc(O)ccc2C=C1c1ccc(O)cc1 (centres undefined) | 139 | 67 | –
O=C(CC1Oc2cc(O)ccc2C=C1c1ccc(O)cc1)c1ccccc1 (centres undefined) | 102 | 88 | –
Cc1ccc(C(=O)CC2Oc3cc(O)ccc3C=C2c2ccc(O)cc2)cc1 (centres undefined) | 60 | 55 | –
CCc1ccc(C(=O)CC2Oc3cc(O)ccc3C=C2c2ccc(O)cc2)cc1 (centres undefined) | 377 | 198 | –
COc1ccc(C(=O)CC2Oc3cc(O)ccc3C=C2c2ccc(O)cc2)cc1 (centres undefined) | 37 | 7.6 | > 50
O=C(CC1Oc2cc(O)ccc2C=C1c1ccc(O)cc1)c1ccc(Br)cc1 (centres undefined) | 33 | 37 | –
O=C(CC1Oc2cc(O)ccc2C=C1c1ccc(O)cc1)c1ccc(Cl)cc1 (centres undefined) | 167 | 151 | –
O=C(CC1Oc2cc(O)ccc2C=C1c1ccc(O)cc1)c1cccc2ccccc12 (centres undefined) | 128 | 106 | –
C/C(CC1Oc2cc(O)ccc2C=C1c1ccc(O)cc1)=N\Nc1ccc([N+](=O)[O-])cc1[N+](=O)[O-] (centres undefined) | 62 | 36 | –
Cc1cc(C2Oc3cc(O)ccc3C=C2c2ccc(O)cc2)cc(C)c1N (centres undefined) | 102 | 53 | > 50
COc1ccc(C2=C(c3ccc(O)cc3)C(CC(C)=O)Oc3cc(O)ccc32)cc1 (centres undefined) | 69 | 39 | –
Oc1ccc(C2=Cc3ccc(O)cc3OC2)cc1 [IDRONOXIL] | 9.9 | 33 | –
